From US20170050957A1, “4-AMINO-6-(HETEROCYCLIC)PICOLINATES AND 6-AMINO-2-(HETEROCYCLIC)PYRIMIDINE-4-CARBOXYLATES AND THEIR USE AS HERBICIDES” (Dow AgroSciences LLC, priority 2013, published 2017)
Like-named read-outs stand apart in the source and are kept apart here.

Experiments:
[1] = tested on: Key Broadleaf Weed and Crop Species; test: Post-emergent Test II herbicidal activity (Table 15); format: in vivo; conditions: post-emergence, 336 h, 14 d; for pest or weed control at 35 g/ha: 35 g ai/ha; for pest or weed control at 70 g/ha: 70 g ai/ha; for pest or weed control at 140 g/ha: 140 g ai/ha
Method in brief: (§1)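 Post-emergence spray; seedlings 7-21 d old, 1st-2nd true leaf; 187 L/ha; serial rates 1×-1/16×; solvent blank controls; subirrigated; visual % injury at 14 d.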

[2] = tested on: Key Grass and Sedge Weeds as well as Grass Crops; test: Post-emergent Test II herbicidal activity (Table 16); format: in vivo; conditions: post-emergence, 336 h, 14 d; for pest or weed control at 35 g/ha: 35 g ai/ha; for pest or weed control at 70 g/ha: 70 g ai/ha; for pest or weed control at 140 g/ha: 140 g ai/ha
Method in brief: as §1

[3] = Abutilon theophrasti, velvetleaf (Abutilon theophrasti), read-out: Visual Growth Reduction (%) 14 Days After Application, ABUTH
[4] = Amaranthus retroflexus, redroot pigweed (Amaranthus retroflexus), read-out: Visual Growth Reduction (%) 14 Days After Application, AMARE
[5] = Brassica napus, oilseed rape, canola (Brassica napus), read-out: Visual Growth Reduction (%) 14 Days After Application, BRSNN
[6] = Chenopodium album, lambsquarters (Chenopodium album), read-out: Visual Growth Reduction (%) 14 Days After Application, CHEAL
[7] = Euphorbia heterophylla, wild poinsettia (Euphorbia heterophylla), read-out: Visual Growth Reduction (%) 14 Days After Application, EPHHL
[8] = Helianthus annuus, sunflower (Helianthus annuus), read-out: Visual Growth Reduction (%) 14 Days After Application, HELAN
[9] = Cyperus esculentus, yellow nutsedge (Cyperus esculentus), read-out: Visual Growth Reduction (%) 14 Days After Application, CYPES
[10] = Echinochloa crus-galli, barnyardgrass (Echinochloa crus-galli), read-out: Visual Growth Reduction (%) 14 Days After Application, ECHCG
[11] = Oryza sativa, rice (Oryza sativa), read-out: Visual Growth Reduction (%) 14 Days After Application, ORYSA
[12] = Setaria faberi, giant foxtail (Setaria faberi), read-out: Visual Growth Reduction (%) 14 Days After Application, SETFA
[13] = Triticum aestivum, wheat, spring (Triticum aestivum), read-out: Visual Growth Reduction (%) 14 Days After Application, TRZAS
[14] = Zea mays, maize, corn (Zea mays), read-out: Visual Growth Reduction (%) 14 Days After Application, ZEAMX

Row | Compound | pest or weed control at 35 g/ha [1, 3] [%] | pest or weed control at 70 g/ha [1, 3] [%] | pest or weed control at 140 g/ha [1, 3] [%] | pest or weed control at 35 g/ha [1, 4] [%] | pest or weed control at 70 g/ha [1, 4] [%] | pest or weed control at 140 g/ha [1, 4] [%] | pest or weed control at 35 g/ha [1, 5] [%] | pest or weed control at 70 g/ha [1, 5] [%] | pest or weed control at 140 g/ha [1, 5] [%] | pest or weed control at 35 g/ha [1, 6] [%] | pest or weed control at 70 g/ha [1, 6] [%] | pest or weed control at 140 g/ha [1, 6] [%] | pest or weed control at 35 g/ha [1, 7] [%] | pest or weed control at 70 g/ha [1, 7] [%] | pest or weed control at 140 g/ha [1, 7] [%] | pest or weed control at 35 g/ha [1, 8] [%] | pest or weed control at 70 g/ha [1, 8] [%] | pest or weed control at 140 g/ha [1, 8] [%] | pest or weed control at 35 g/ha [2, 9] [%] | pest or weed control at 70 g/ha [2, 9] [%] | also measured
1 | COC(=O)c1nc(-c2ccc3cc[nH]c3c2)nc(N)c1Cl [Compound 1.30] | 0 to 29 | 0 to 29 | 75 to 84 | 0 to 29 | 75 to 84 | 60 to 74 | 45 to 59 | 45 to 59 | 60 to 74 | 30 to 44 | 30 to 44 | 45 to 59 | 0 to 29 | 45 to 59 | 60 to 74 | 0 to 29 | 0 to 29 | 0 to 29 | 0 to 29 | 0 to 29 | pest or weed control at 140 g/ha [2, 9]: 0 to 29%; pest or weed control at 35 g/ha [2, 10]: 0 to 29%; pest or weed control at 70 g/ha [2, 10]: 0 to 29%; pest or weed control at 140 g/ha [2, 10]: 0 to 29%; pest or weed control at 35 g/ha [2, 11]: 0 to 29%; pest or weed control at 70 g/ha [2, 11]: 0 to 29%; pest or weed control at 140 g/ha [2, 11]: 0 to 29%; pest or weed control at 35 g/ha [2, 12]: 0 to 29%; pest or weed control at 70 g/ha [2, 12]: 0 to 29%; pest or weed control at 140 g/ha [2, 12]: 0 to 29%; pest or weed control at 35 g/ha [2, 13]: 0 to 29%; pest or weed control at 70 g/ha [2, 13]: 0 to 29%; pest or weed control at 140 g/ha [2, 13]: 0 to 29%; pest or weed control at 35 g/ha [2, 14]: 0 to 29%; pest or weed control at 70 g/ha [2, 14]: 0 to 29%; pest or weed control at 140 g/ha [2, 14]: 0 to 29%; melting point: 240 to 242 °C
2 | COC(=O)c1nc(-c2ccc3cc[nH]c3c2F)nc(N)c1Cl [Compound 1.31] | 45 to 59 | 60 to 74 | 60 to 74 | 60 to 74 | 95 to 100 | 95 to 100 | 85 to 94 | 95 to 100 | 95 to 100 | 95 to 100 | 95 to 100 | 95 to 100 | 95 to 100 | 95 to 100 | 95 to 100 | 30 to 44 | 45 to 59 | 60 to 74 | 0 to 29 | 0 to 29 | pest or weed control at 140 g/ha [2, 9]: 0 to 29%; pest or weed control at 35 g/ha [2, 10]: 75 to 84%; pest or weed control at 70 g/ha [2, 10]: 75 to 84%; pest or weed control at 140 g/ha [2, 10]: 85 to 94%; pest or weed control at 35 g/ha [2, 11]: 0 to 29%; pest or weed control at 70 g/ha [2, 11]: 0 to 29%; pest or weed control at 140 g/ha [2, 11]: 0 to 29%; pest or weed control at 35 g/ha [2, 12]: 60 to 74%; pest or weed control at 70 g/ha [2, 12]: 75 to 84%; pest or weed control at 140 g/ha [2, 12]: 85 to 94%; pest or weed control at 35 g/ha [2, 13]: 75 to 84%; pest or weed control at 70 g/ha [2, 13]: 0 to 29%; pest or weed control at 140 g/ha [2, 13]: 30 to 44%; pest or weed control at 35 g/ha [2, 14]: 0 to 29%; pest or weed control at 70 g/ha [2, 14]: 0 to 29%; pest or weed control at 140 g/ha [2, 14]: 0 to 29%; melting point: 185 to 190 °C
